According to patent publication US20060252766A1, “Methods using a combination of 3-heteroaryl-2-indolinone and a cyclooxygenase-2 inhibitor for the treatment of neoplasia” (PFIZER INC, priority 2002, published 2006):
Where “and” joins values, the source holds several entries; their conditions need not be identical. Equal entries are not always repeated.

System: 1483 human head and neck squamous cell carcinoma (HNSCC) xenograft
Assay: HN1483 tumor model: paw tumor volume of treated mice
Assay type: in vivo, nude mice
Details: for Paw volume, paw / Tumor vol.: individual mice; for Tumor vol.: paw minus BKG. 0.10
[1] = Celecoxib/40 ppm, Day 17 Mar. 16, 2001
[2] = Celecoxib/40 ppm, Day 21 Mar. 20, 2001
[3] = Celecoxib/40 ppm, Day 24 Mar. 23, 2001
[4] = Celecoxib/40 ppm, Day 31 Apr. 2, 2001
[5] = Celecoxib/40 ppm, Day 31 Mar. 30, 2001
[6] = Celecoxib/160 ppm, Day 17 Mar. 16, 2001
[7] = Celecoxib/160 ppm, Day 21 Mar. 20, 2001
[8] = Celecoxib/160 ppm, Day 24 Mar. 23, 2001
[9] = Celecoxib/160 ppm, Day 31 Apr. 2, 2001
[10] = Celecoxib/160 ppm, Day 31 Mar. 30, 2001

SMILES: Cc1ccc(-c2cc(C(F)(F)F)nn2-c2ccc(S(N)(=O)=O)cc2)cc1 [Celecoxib, celecoxib, reference compound]
- Paw volume, paw (Celecoxib/40 ppm, Day 14 Mar. 13, 2001): 0.28 (2×) and 0.25 (2×) and 0.24 (2×) and 0.29 and 0.27
- Tumor vol. Average (Celecoxib/40 ppm, Day 17 Mar. 16, 2001, group average): 0.17
- Paw volume, paw [1]: 0.3 and 0.29 (2×) and 0.22 and 0.32 and 0.27 and 0.25 (2×)
- Tumor vol. [1]: 0.20 and 0.19 (2×) and 0.12 and 0.22 and 0.17 and 0.15 (2×)
- Tumor vol. Average (Celecoxib/40 ppm, Day 21 Mar. 20, 2001, group average): 0.22
- Paw volume, paw [2]: 0.38 (2×) and 0.23 and 0.36 and 0.28 (2×) and 0.39 and 0.31
- Tumor vol. [2]: 0.28 (3×) and 0.13 and 0.18 (2×) and 0.29 and 0.21
- Tumor vol. Average (Celecoxib/40 ppm, Day 24 Mar. 23, 2001, group average): 0.23
- Paw volume, paw [3]: 0.37 and 0.32 and 0.23 and 0.44 and 0.28 and 0.29 and 0.47 and 0.27
- Tumor vol. [3]: 0.27 and 0.22 and 0.13 and 0.34 and 0.18 and 0.19 and 0.37 and 0.17
- Tumor vol. Average (Celecoxib/40 ppm, Day 31 Apr. 2, 2001, group average): 0.48
- Paw volume, paw [4]: 0.7 and 0.48 (2×) and 0.25 and 0.75 and 0.44 and 0.38 and 0.89
- Tumor vol. [4]: 0.60 and 0.38 (2×) and 0.18 and 0.55 and 0.34 and 0.28 and 0.79
- Tumor vol. Average (Celecoxib/40 ppm, Day 31 Mar. 30, 2001, group average): 0.40
- Paw volume, paw [5]: 0.63 and 0.51 and 0.27 and 0.72 and 0.30 and 0.39 and 0.71 and 0.41
- Tumor vol. [5]: 0.53 and 0.41 and 0.17 and 0.82 and 0.29 and 0.20 and 0.61 and 0.31
- Paw volume, paw (Celecoxib/160 ppm, Day 14 Mar. 13, 2001): 0.19 and 0.26 and 0.22 and 0.3 and 0.23 (3×) and 0.28
- Tumor vol. Average (Celecoxib/160 ppm, Day 17 Mar. 16, 2001, group average (row not labelled)): 0.18
- Paw volume, paw [6]: 0.24 and 0.25 (2×) and 0.21 and 0.31 and 0.23 and 0.29 and 0.27
- Tumor vol. [6]: 0.14 and 0.15 (2×) and 0.11 and 0.21 and 0.13 and 0.19 and 0.17
- Tumor vol. Average (Celecoxib/160 ppm, Day 21 Mar. 20, 2001, group average (row not labelled)): 0.15
- Paw volume, paw [7]: 0.22 and 0.28 (2×) and 0.24 and 0.32 and 0.3 (2×) and 0.25
- Tumor vol. [7]: 0.12 and 0.16 (3×) and 0.14 and 0.22 and 0.20 (2×)
- Tumor vol. Average (Celecoxib/160 ppm, Day 24 Mar. 23, 2001, group average (row not labelled)): 0.19
- Paw volume, paw [8]: 0.22 and 0.28 and 0.24 (2×) and 0.38 and 0.27 and 0.35 and 0.31
- Tumor vol. [8]: 0.12 and 0.16 and 0.14 (2×) and 0.28 and 0.17 and 0.26 and 0.21
- Tumor vol. Average (Celecoxib/160 ppm, Day 31 Apr. 2, 2001, group average (row not labelled)): 0.29
- Paw volume, paw [9]: 0.33 (3×) and 0.57 and 0.29 and 0.59 and 0.4 and 0.28
- Tumor vol. [9]: 0.23 (2×) and 0.22 and 0.47 and 0.19 and 0.49 and 0.30 and 0.10
- Tumor vol. Average (Celecoxib/160 ppm, Day 31 Mar. 30, 2001, group average (row not labelled)): 0.29
- Paw volume, paw [10]: 0.38 and 0.32 and 0.3 and 0.49 and 0.33 and 0.57 and 0.4 and 0.5
- Tumor vol. [10]: 0.28 and 0.22 and 0.20 (2×) and 0.39 and 0.23 and 0.47 and 0.30
